Where two headings read alike, the source gives them in different places.
Experiments:
[1] = low sustained systemic release; cited from earlier work
[2] = in vivo; cited from earlier work
[3] = test system: Mycobacterium tuberculosis outside cells; settings: cited from earlier work
[4] = test system: Mycobacterium tuberculosis bacteria in the monocytes; settings: cited from earlier work
[5] = cited from earlier work
[6] = cited from earlier work; remark: listed apart in the source
M. tuberculosis [7] = settings: flow cytometry; cited from earlier work
tuberculosis bacteria = settings: treated for 3 days, versus untreated sample; cited from earlier work
[8] = test system: mycobacterium tuberculosis; assay: Breast cancer patient with pulmonary TB given high dose Vitamin C; format: in vivo, human
Description: In the presence of above reductants, ferrous ions are produced by reduction of ferric ions (#2). One reductant known to drive the Fenton reaction is Vitamin C, also known as ascorbic acid. As a pro-oxidant, vitamin C can drive the Fenton reaction by reducing ferric ions to ferrous ions as shown in the above formula and FIG. 3. Most iron within the cell is bound within porphyrins and proteins, as ferric ions that are sparingly soluble and ferrous ions are very reactive as well as more soluble. To examine the role of iron concentration in vitamin C bactericidal activity, the concentrations of bound iron and reduced and oxidized free iron were measured in tuberculosis cultures treated with vitamin C. […] This increase in free iron levels was also the dose which peaked at day three. […] We treated a person has traveled to Southeast Asia and was diagnosed with left breast cancer. It was an early case with discrete lymph node metastasis. They have cough with blood tinged sputum, night sweats, and weight loss. […] By the time we made the TB diagnosis they were treated with high dose Vitamin C 10 to 25 grams in 500 ml normal saline every day for a total of 10 doses as an adjuvant therapy for cancer. They underwent local injection of anti-breast cancer chemotherapy therapeutic agents with insulin and local heat application with magnetic heat waves and hyperbaric therapy using soft air HBO chamber.
This person has traveled to Southeast Asia and was diagnosed with left breast cancer. It was an early case with discrete lymph node metastasis. They have cough with blood tinged sputum, night sweats, and weight loss. […] By the time we made the TB diagnosis they were treated with high dose Vitamin C 10 to 25 grams in 500 ml normal saline every day for a total of 10 doses as an adjuvant therapy for cancer. They underwent local injection of anti-breast cancer chemotherapy therapeutic agents with insulin and local heat application with magnetic heat waves and hyperbaric therapy using soft air HBO chamber.
After the lab came with mycobacterium tuberculosis, we wanted to see why the cough has gone with no sputum. […] We sent the sputum again, and came negative for mycobacterium tuberculosis after culture. This also made us to diagnose that the lesion in the lungs was not a metastatic breast cancer. The patient was treated with chemotherapy, local injection of breast mass and lymph nodes with high dose Vitamin C chemotherapy therapeutic agents. After completion of therapy, they were sent to surgery for the removal of the remaining lesion mass in the breast which had shrunk considerably, and axillary lymph node resection. They were seen 3 months after surgery. Their chest X ray was negative and so also sputum M. tuberculosis bacteria. They were free of cancer and tuberculosis.

[9] = cited from earlier work; remark: listed apart in the source
creatine kinase = settings: compared with the placebo group; cited from earlier work
[10] = test system: plasma C reactive protein (CRP); settings: smokers; cited from earlier work
[11] = test system: Methicillin resistant staphylococcus aureus; assay: Treatment of MRSA infected patients; settings: with broad spectrum antibiotics, insulin induced hypoglycemia and hyperbaric therapy
endothelial dysfunction = settings: 2,000 mg/day for two weeks; cited from earlier work
tuberculosis cultures = settings: compared to the untreated cultures after three days; cited from earlier work
M. tuberculosis [12] = settings: after 9 days; cited from earlier work
[13] = intravenous, doses from 5 to 50 grams or higher per day
malaria = settings: 3 grams (about 50 mg/kg) over a 3 to 5 day period; cited from earlier work
[14] = test system: radiation resistant breast cancer cells; settings: cells pre-loaded with iron after incubation with holotransferrin, cited from earlier work
tuberculosis infection = settings: cited from earlier work; for effect on tuberculosis infection: alone at 20 mg/kg per day; for TB lesion in the spleen compared with pyrazinamide alone / bacteria in the lungs compared with pyrazinamide alone: simultaneous administration with pyrazinamide
TB bacteria [15] = settings: cited from earlier work
[16] = at atmospheric pressure; cited from earlier work
pathogenic organism's = settings: cited from earlier work
TB proteasome = TB proteasome (Mycobacterium tuberculosis, UniProt P9WHT9); settings: Lin et al 2009; cited from earlier work
Sequence of TB proteasome (P9WHT9 58-291): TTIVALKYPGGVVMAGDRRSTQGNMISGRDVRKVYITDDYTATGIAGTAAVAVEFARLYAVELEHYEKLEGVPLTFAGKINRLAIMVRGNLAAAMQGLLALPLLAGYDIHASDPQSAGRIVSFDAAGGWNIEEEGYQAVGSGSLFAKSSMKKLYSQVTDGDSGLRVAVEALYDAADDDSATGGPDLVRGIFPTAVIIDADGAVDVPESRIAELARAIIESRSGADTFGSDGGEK
Sequence of TB proteasome (P9WHU1 whole entry partner): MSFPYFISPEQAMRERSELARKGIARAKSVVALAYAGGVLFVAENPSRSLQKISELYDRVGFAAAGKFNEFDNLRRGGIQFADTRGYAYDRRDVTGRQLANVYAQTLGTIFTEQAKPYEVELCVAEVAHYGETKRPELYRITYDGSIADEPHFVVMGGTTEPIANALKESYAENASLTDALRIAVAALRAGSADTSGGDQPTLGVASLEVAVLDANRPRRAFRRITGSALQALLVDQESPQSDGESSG

monkey and human cells = settings: cited from earlier work
TB bacteria [17] = settings: cited from earlier work; remark: listed apart in the source
M. tuberculosis [18] = settings: cited from earlier work
[19] = molecular target: proprotein convertase subtilisin-kexin type 9 (PCSK9) (Homo sapiens, UniProt Q8NBP7); settings: parenteral administration; cited from earlier work
[20] = 150 mg/kg per day, one month of treatment

O=[N+]([O-])c1ccc(O)c([N+](=O)[O-])c1 [DNP, 2,4, dinitrophenol]
increase of the therapeutic window [1]: more than 500 fold

CC[C@@H](CO)NCCN[C@@H](CC)CO [Ethambutol]
adverse effects stated in the text [2]: risk of developing optic neuritis

CCc1cc(C(N)=S)ccn1 [Ethionamide, 2-ethylthioiso-nicotinamide]
adverse effects stated in the text [2]: neurotoxicity and fatal hepatotoxicity

O=C1[C@H](CC[C@H](O)c2ccc(F)cc2)[C@@H](c2ccc(O)cc2)N1c1ccc(F)cc1 [Ezetimibe, (3R,4S)-1-(4-fluorophenyl)-3-[(3S)-3-(4-fluorophenyl)-3-hydroxypropyl]-4-(4-hydroxyphenyl) zetidin-2-one]
killing of Mycobacterium tuberculosis outside cells [3]: directly killing | survival and proliferation of Mycobacterium tuberculosis in the monocytes [4]: significantly inhibiting the survival and proliferation

CO[C@H]1/C=C/O[C@@]2(C)Oc3c(C)c(O)c4c(O)c(c(/C=N/N5CCN(C)CC5)c(O)c4c3C2=O)NC(=O)/C(C)=C\C=C\[C@H](C)[C@H](O)[C@@H](C)[C@@H](O)[C@@H](C)[C@H](OC(C)=O)[C@@H]1C [Rifampin, Rifampicin]
ADVERSE EVENT/CONTRAINDICATION [2]: Hepatitis, GI reactions | Plasma Concentrations (mean±standard deviation) ([5]; IV 300 mg, 30 min): 8900 ± 2900 ng/mL | Plasma Concentrations (mean±standard deviation) ([5]; IV 300 mg, 1 hr to 2 hr): 4900 ± 1300 ng/mL | Plasma Concentrations (mean±standard deviation) ([5]; IV 300 mg, 4 hr): 2500 ± 1000 ng/mL | Plasma Concentrations (mean±standard deviation) ([5]; IV 300 mg, 8 hr): 1000 ± 600 ng/mL | Plasma Concentrations (mean±standard deviation) ([5]; IV 300 mg, 12 hr): <400 ng/mL | Plasma Concentrations (mean±standard deviation) ([5]; IV 600 mg, 30 min): 17400 ± 5100 ng/mL | Plasma Concentrations (mean±standard deviation) ([5]; IV 600 mg, 1 hr to 2 hr): 11700 ± 2800 ng/mL | Plasma Concentrations (mean±standard deviation) ([5]; IV 600 mg, 4 hr): 6400 ± 1700 ng/mL | Plasma Concentrations (mean±standard deviation) ([5]; IV 600 mg, 8 hr): 3500 ± 1400 ng/mL | Plasma Concentrations (mean±standard deviation) ([5]; IV 600 mg, 12 hr): 1200 ng/mL | concentration of the drug in the blood plasma ([6]; after increasing the dose): higher than expected | adverse effects ([6]; increased dose versus standard dose): did not experience adverse effects

CC(=O)Nc1ccc(/C=N/NC(N)=S)cc1 [Thiacetazone]
ADVERSE EVENT/CONTRAINDICATION [2]: Severe skin rash among HIV +ve (not recommended)

O=C1O[C@H]([C@@H](O)CO)C(O)=C1O [Vitamin C, L-ascorbic acid]
increase in total ROS (M. tuberculosis [7]): Up to threefold | intracellular levels of ferrous ions (tuberculosis bacteria): up to ten times higher | outcome of tuberculosis ([8]; 10 to 25 grams IV every day, total of 10 doses): completely cured of tuberculosis | cough ([8]; by second week): completely disappeared | sputum for mycobacterium tuberculosis after culture ([8]; repeat sputum after treatment): negative | chest X ray ([8]; third week): disappearance of the lesion | peak plasma concentration ([9]; IV infusion up to 50 grams, cancer patients): 13.4 mM | peak plasma concentrations ([9]; maximum tolerated dose of 3 g every 4 hours taken orally): 0.22 mM | release of creatine kinase, an indicator of muscle damage (creatine kinase): inhibits the release of creatine kinase | reduction in plasma C reactive protein (CRP) concentrations [10]: 24% | outcome of MRSA infection [11]: complete elimination of the infection | endothelial dysfunction (endothelial dysfunction): reversed endothelial dysfunction | extracellular free iron concentrations (tuberculosis cultures): nearly four-fold higher | DNA damage relative to the untreated culture or culture treated with Vitamin E (M. tuberculosis [12]): tenfold higher | ROS induced DNA damage (M. tuberculosis [12]): 17-25% | safety and tolerability [13]: safe and well-tolerated

C[C@@H]1CC[C@H]2[C@@H](C)C(=O)O[C@@H]3O[C@@]4(C)CC[C@@H]1[C@]32OO4 [artemisinin]
resistance and toxicity (malaria): no resistance nor did toxicity | cancer cell killing ([14]; 8 hours): 75% | cancer cell killing ([14]; within 24 hours): ~100%

CC(=O)Oc1ccccc1C(=O)O [aspirin, Acetylsalicylic acid]
effect on tuberculosis infection (tuberculosis infection): little effect | TB lesion in the spleen compared with pyrazinamide alone (tuberculosis infection): further decrease | bacteria in the lungs compared with pyrazinamide alone (tuberculosis infection): statistically significant fewer bacteria

N[C@@H](CS)C(=O)O [cysteine]
intracellular levels of ferrous ions (tuberculosis bacteria): up to ten times higher

CC(C)Cc1ccc(C(C)C(=O)O)cc1 (stereo not drawn) [ibuprofen]
number of TB bacteria detected in the organs (TB bacteria [15]; mouse, in vivo): reduced the number of TB bacteria detected in the organs | survival (TB bacteria [15]; versus mice not treated with ibuprofen): lived longer | effect on tuberculosis infection (tuberculosis infection): little effect | TB lesion in the spleen compared with pyrazinamide alone (tuberculosis infection): further decrease | bacteria in the lungs compared with pyrazinamide alone (tuberculosis infection): lower unit counts

O=[O+][O-] [ozone]
time to break down from O3 to O2+O1 [16]: ≤ 20 min | molecules of chlorine equal to one molecule of ozone (pathogenic organism's): 3000-10,000 molecules | speed of killing pathogenic organisms (pathogenic organism's; compared with chlorine): 3500 times faster

NC(=O)c1cnccn1 [pyrazinamide, Pyrazinamide]
ADVERSE EVENT/CONTRAINDICATION [2]: Hepatitis | reduction in the lung compared with the control (tuberculosis infection; [20]): about 1.5 log10 cfu | reduction in the spleen compared with the control (tuberculosis infection; [20]): ~2 log10 cfu

oxathiazol-2-one
inhibition of the TB proteasome relative to the human proteasome (TB proteasome): about 1,000 times | harm to mammalian cells (monkey and human cells): did not appear to harm mammalian cells | effect on TB bacteria (TB bacteria [17]): killed the TB bacteria

B1: IFN-Y^− 1b: recombinant interferon gamma 1b, given nebulized (protein, UniProt P01579 24-161, looked up)
Interferon gamma: QDPYVKEAENLKKYFNAGHSDVADNGTLFLGILKNWKEESDRKIMQSQIVSFYFKLFKNFKDDQSIQKSVETIKEDMNVKFFNSNKKKRDDFEKLTNYSVTDLNVQRKAIHELIQVMAELSPAAKTGKRKRSQMLFRG
IFN gamma signaling (M. tuberculosis [18]; 10 TB patients, one month of nebulized therapy): enhanced IFN-Y^− signaling | clearance of M. tuberculosis bacteria from the sputum (M. tuberculosis [18]; nebulized, added to DOTS, randomized controlled trial): more rapid clearance | sputum (M. tuberculosis [18]; open-label, nebulized, 5 patients with MDR-TB, after 1 month): clearing of the sputum

B2: evolocumab: human monoclonal antibody that inhibits PCSK9 (antibody, chains of the INN, looked up, V domains shown)
VH: EVQLVQSGAEVKKPGASVKVSCKASGYTLTSYGISWVRQAPGQGLEWMGWVSFYNGNTNYAQKLQGRGTMTTDPSTSTAYMELRSLRSDDTAVYYCARGYGMDVWGQGTTVTVSS
VL: ESALTQPASVSGSPGQSITISCTGTSSDVGGYNSVSWYQQHPGKAPKLMIYEVSNRPSGVSNRFSGSKSGNTASLTISGLQAEDEADYYCNSYTSTSMVFGGGTKLTVL
reduction in LDL cholesterol levels [19]: 60%
